Measurements taken from patent publication US11578087B2, “Oxaborole esters and uses thereof” (priority 2016, dated 2023).

Tests used:
[1] = tested on: STIB719/ILRAD560 T. vivax (drug sensitive) strain; assay: Ex vivo Alamar Blue 48 h drug sensitivity assay for T. vivax; type: cell-based; conditions: Trypanosoma vivax, ex vivo bloodstream form from mouse, 45 hrs + 3 hrs Resazurin, 37° C., read-out: IC50: I Hypoxanthine Incorporation T. vivax 2 d
[2] = tested on: IL3000 T. congolense (drug sensitive) strain; assay: In vitro Alamar Blue 72 h drug sensitivity assay for T. congolense; type: cell-based, Trypanosoma congolense; conditions: Trypanosoma congolense, 72 h, bloodstream form, 69 h + 3 h Resazurin, 34° C., read-out: IC50: I Org. Growth T. congolense 3 d
How it was run: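 Bloodstream-form trypanosomes in HMI medium with 20% bovine serum were exposed to compounds for 69 h at 34° C, 5% CO2, then resazurin for another 3 h. Fluorescence read at ex 536/em 588 nm; IC50 from 11-point sigmoidal dose-response curves, at least three independent runs.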

[3] = tested on: T. cruzi amastigote (Td Tomato-modified) in Vero cells; assay: In vitro IC50 measurement of T. cruzi amastigote killing using Td Tomato-modified T. cruzi; type: cell-based; conditions: Trypanosoma cruzi, 72 h, fluorescence, read-out: IC50: I Org. amastigote Growth T. cruzi 3 d
How it was run: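 Vero cells infected with Td Tomato-expressing T. cruzi, treated with compound at 5 uM to 5 nM final, incubated 72 h at 37 °C. Fluorescence (Ex 544/Em 612 nm) read at Day 0 and Day 3, Day 0 subtracted; IC50 and IC90 by nonlinear regression.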

Structure (SMILES) | IC50 [1] [µM] | IC50 [2] [µM] | IC50 [3] [µM]
CC(C)C[C@H](NC(=O)c1ccc2c(c1)B(O)OC2)C(=O)OCc1ccccc1 [Example 6-006, Benzyl (1-hydroxy-1,3-dihydrobenzo[c][1,2]oxaborole-6-carbonyl)-L-leucinate] | 0.00051 to 0.0499 | 0.00051 to 0.00999 | 
COC(=O)[C@H](C)NC(=O)c1ccc2c(c1)B(O)OC2 [Example 6-016, Methyl (1-hydroxy-1,3-dihydrobenzo[c][1,2]oxaborole-6-carbonyl)-L-alaninate] | > 2 | 0.01 to 5 | 
COC(=O)[C@@H](Cc1ccccc1)NC(=O)c1ccc2c(c1)B(O)OC2 [Example 6-018, Methyl (1-hydroxy-1,3-dihydrobenzo[c][1,2]oxaborole-6-carbonyl)-D-phenylalaninate] | 0.05 to 2 | 0.01 to 5 | 
C[C@H](NC(=O)c1ccc2c(c1)B(O)OC2)C(=O)O[C@H](C)c1ccccc1 [Example 6-019, (R)-1-Phenylethyl (1-hydroxy-1,3-dihydrobenzo[c][1,2]oxaborole-6-carbonyl)-L-alaninate] | 0.05 to 2 | 0.00051 to 0.00999 | 
C[C@@H](OC(=O)[C@H](Cc1ccccc1)NC(=O)c1ccc2c(c1)B(O)OC2)c1ccccc1 [Example 6-021, (R)-1-phenylethyl (1-hydroxy-1,3-dihydrobenzo[c][1,2]oxaborole-6-carbonyl)-L-phenylalaninate] | 0.00051 to 0.0499 | 0.00051 to 0.00999 | 
C[C@H](NC(=O)c1ccc2c(c1)B(O)OC2)C(=O)O[C@@H](C)c1ccccc1 [Example 6-022, (S)-1-phenylethyl (1-hydroxy-1,3-dihydrobenzo[c][1,2]oxaborole-6-carbonyl)-L-alaninate] | 0.05 to 2 | 0.01 to 5 | 
C[C@H](OC(=O)[C@H](Cc1ccccc1)NC(=O)c1ccc2c(c1)B(O)OC2)c1ccccc1 [Example 6-024, (S)-1-phenylethyl (1-hydroxy-1,3-dihydrobenzo[c][1,2]oxaborole-6-carbonyl)-L-phenylalaninate] | 0.05 to 2 | 0.00051 to 0.00999 | 
Cc1c(C(=O)N[C@H](C(=O)OCCC(C)(C)O)C(C)C)ccc2c1B(O)OC2 [Example 6-209, 3-hydroxy-3-methylbutyl (1-hydroxy-7-methyl-1,3-dihydrobenzo[c][1,2]oxaborole-6-carbonyl)-L-valinate] |  | 0.00051 to 0.00999 | 0.021 to 0.999
Cc1c(C(=O)N[C@H](C(=O)OCC2CCCO2)C(C)C)ccc2c1B(O)OC2 (stereo partly drawn) [Example 6-210, (tetrahydrofuran-2-yl)methyl (1-hydroxy-7-methyl-1,3-dihydrobenzo[c][1,2]oxaborole-6-carbonyl)-L-valinate] |  | < 0.0005 | ≤ 0.02
Cc1c(C(=O)N[C@H](C(=O)OCC(C)(C)O)C(C)C)ccc2c1B(O)OC2 [Example 6-211, 2-hydroxy-2-methylpropyl (1-hydroxy-7-methyl-1,3-dihydrobenzo[c][1,2]oxaborole-6-carbonyl)-L-valinate] |  | 0.00051 to 0.00999 | 0.021 to 0.999
Cc1c(C(=O)N[C@H](C(=O)OCCN2CCCC2=O)C(C)C)ccc2c1B(O)OC2 [Example 6-212, 2-(2-oxopyrrolidin-1-yl)ethyl (1-hydroxy-7-methyl-1,3-dihydrobenzo[c][1,2]oxaborole-6-carbonyl)-L-valinate] |  | 0.01 to 5 | 0.021 to 0.999
Cc1c(C(=O)N[C@H](C(=O)OCCN2CCCOCC2)C(C)C)ccc2c1B(O)OC2 [Example 6-214, 2-(1,4-oxazepan-4-yl)ethyl (1-hydroxy-7-methyl-1,3-dihydrobenzo[c][1,2]oxaborole-6-carbonyl)-L-valinate] |  | 0.00051 to 0.00999 | ≥ 1
Cc1c(C(=O)N[C@H](C(=O)OC[C@H]2CCCO2)C(C)C)ccc2c1B(O)OC2 [Example 6-215, ((R)-tetrahydrofuran-2-yl)methyl (1-hydroxy-7-methyl-1,3-dihydrobenzo[c][1,2]oxaborole-6-carbonyl)-L-valinate] |  | < 0.0005 | ≤ 0.02
Cc1c(C(=O)N[C@H](C(=O)OCCN2CCOC2=O)C(C)C)ccc2c1B(O)OC2 [Example 6-216, 2-(2-oxooxazolidin-3-yl)ethyl (1-hydroxy-7-methyl-1,3-dihydrobenzo[c][1,2]oxaborole-6-carbonyl)-L-valinate] |  | 0.01 to 5 | ≥ 1
Cc1c(C(=O)N[C@H](C(=O)OCCN2CC3(COC3)C2)C(C)C)ccc2c1B(O)OC2 [Example 6-218, 2-(2-oxa-6-azaspiro[3.3]heptan-6-yl)ethyl (1-hydroxy-7-methyl-1,3-dihydrobenzo[c][1,2]oxaborole-6-carbonyl)-L-valinate] |  | 0.01 to 5 | ≥ 1
Cc1c(C(=O)N[C@H](C(=O)OCCN2CCOCC2C)C(C)C)ccc2c1B(O)OC2 (stereo partly drawn) [Example 6-219, 2-(3-methylmorpholino)ethyl (1-hydroxy-7-methyl-1,3-dihydrobenzo[c][1,2]oxaborole-6-carbonyl)-L-valinate] |  | < 0.0005 | 0.021 to 0.999
Cc1c(C(=O)N[C@H](C(=O)OCC2(O)CCCC2)C(C)C)ccc2c1B(O)OC2 [Example 6-220, (1-hydroxycyclopentyl)methyl (1-hydroxy-7-methyl-1,3-dihydrobenzo[c][1,2]oxaborole-6-carbonyl)-L-valinate] |  | 0.00051 to 0.00999 | ≤ 0.02
Cc1c(C(=O)NC2(C(=O)OCc3ccc(F)cc3)COC2)ccc2c1B(O)OC2 [Example 6-221, 4-fluorobenzyl 3-(1-hydroxy-7-methyl-1,3-dihydrobenzo[c][1,2]oxaborole-6-carboxamido)oxetane-3-carboxylate] |  | 0.00051 to 0.00999 | 0.021 to 0.999
Cc1c(C(=O)NC2(C(=O)OCCN3CCOCC3)COC2)ccc2c1B(O)OC2 [Example 6-222, 2-morpholinoethyl 3-(1-hydroxy-7-methyl-1,3-dihydrobenzo[c][1,2]oxaborole-6-carboxamido)oxetane-3-carboxylate] |  | 0.01 to 5 | ≥ 1
Cc1c(C(=O)NC2(C(=O)OCc3ccccn3)COC2)ccc2c1B(O)OC2 [Example 6-223, Pyridin-2-ylmethyl 3-(1-hydroxy-7-methyl-1,3-dihydrobenzo[c][1,2]oxaborole-6-carboxamido)oxetane-3-carboxylate] |  | 0.01 to 5 | 0.021 to 0.999
Cc1c(C(=O)NC2(C(=O)OCC3CCCC3)COC2)ccc2c1B(O)OC2 [Example 6-224, Cyclopentylmethyl 3-(1-hydroxy-7-methyl-1,3-dihydrobenzo[c][1,2]oxaborole-6-carboxamido)oxetane-3-carboxylate] |  | 0.00051 to 0.00999 | ≤ 0.02
Cc1c(C(=O)N[C@H](C(=O)OCc2cnc(N)nc2)C(C)C)ccc2c1B(O)OC2 [Example 6-225, (2-aminopyrimidin-5-yl)methyl (1-hydroxy-7-methyl-1,3-dihydrobenzo[c][1,2]oxaborole-6-carbonyl)-L-valinate] |  | 0.01 to 5 | 0.021 to 0.999
Cc1c(C(=O)N[C@H](C(=O)OCC2(F)CCOCC2)C(C)C)ccc2c1B(O)OC2 [Example 6-226, (4-fluorotetrahydro-2H-pyran-4-yl)methyl (1-hydroxy-7-methyl-1,3-dihydrobenzo[c][1,2]oxaborole-6-carbonyl)-L-valinate] |  | < 0.0005 | ≤ 0.02
Cc1c(C(=O)N[C@H](C(=O)OCC2CCCC2)C(C)(C)O)ccc2c1B(O)OC2 [Example 6-228, Cyclopentylmethyl (S)-3-hydroxy-2-(1-hydroxy-7-methyl-1,3-dihydrobenzo[c][1,2]oxaborole-6-carboxamido)-3-methylbutanoate] |  | < 0.0005 | 0.021 to 0.999
Cc1c(C(=O)N[C@H](C(=O)OCC2(O)CCCCC2)C(C)C)ccc2c1B(O)OC2 [Example 6-229, (1-hydroxycyclohexyl)methyl (1-hydroxy-7-methyl-1,3-dihydrobenzo[c][1,2]oxaborole-6-carbonyl)-L-valinate] |  | < 0.0005 | ≤ 0.02
Cc1c(C(=O)N[C@H](C(=O)OCc2ccc(OCCN3CCCC3)c(F)c2)C(C)C)ccc2c1B(O)OC2 [Example 6-242, 3-Fluoro-4-(2-(pyrrolidin-1-yl)ethoxy)benzyl (1-hydroxy-7-methyl-1,3-dihydrobenzo[c][1,2]oxaborole-6-carbonyl)-L-valinate] |  | 0.00051 to 0.00999 | ≤ 0.02
Cc1c(C(=O)N[C@H](C(=O)OCc2ccc(OCCN3CCCC3)c(Cl)c2)C(C)C)ccc2c1B(O)OC2 [Example 6-243, 3-Chloro-4-(2-(pyrrolidin-1-yl)ethoxy)benzyl (1-hydroxy-7-methyl-1,3-dihydrobenzo[c][1,2]oxaborole-6-carbonyl)-L-valinate] |  | 0.00051 to 0.00999 | 0.021 to 0.999
Cc1c(C(=O)N[C@H](C(=O)OCc2ccc(F)c(OCCN3CCCC3)c2)C(C)C)ccc2c1B(O)OC2 [Example 6-245, 4-Fluoro-3-(2-(pyrrolidin-1-yl)ethoxy)benzyl (1-hydroxy-7-methyl-1,3-dihydrobenzo[c][1,2]oxaborole-6-carbonyl)-L-valinate] |  | 0.00051 to 0.00999 | 0.021 to 0.999
Cc1c(C(=O)N[C@H](C(=O)OCc2ccc(OCCN3CCOCC3)cc2)C(C)C)ccc2c1B(O)OC2 [Example 6-247, 4-(2-Morpholinoethoxy)benzyl(1-hydroxy-7-methyl-1,3-dihydrobenzo[c][1,2]oxaborole-6-carbonyl)-L-valinate] |  | 0.00051 to 0.00999 | ≤ 0.02
Cc1c(C(=O)N[C@H](C(=O)OCc2ccc(OCCCN3CCCC3)cc2)C(C)C)ccc2c1B(O)OC2 [Example 6-249, 4-(3-(Pyrrolidin-1-yl)propoxy)benzyl(1-hydroxy-7-methyl-1,3-dihydrobenzo[c][1,2]oxaborole-6-carbonyl)-L-valinate] |  | 0.00051 to 0.00999 | 0.021 to 0.999
